Counter-ions that a name gives are not always drawn.
Target: T1, mGluR5 receptor (Sus scrofa, UniProt I3LUI7)
T1 construct: 450 μg of protein from brain homogenate with 5 nM ^3[H]-MPEP; from tissue; host or cells: pig brain halves without medulla, cerebellum and pons
Experiment: [3H]-MPEP mGluR5 receptor binding assay (pig brain homogenate)
Details: 5 nM [3H]-MPEP; for inhibition at 10 µM / % Inhibition of mGluR5 Receptor (pig) [^3H]-MPEP Bond at 10 μM: 10 μM compound; for inhibition at 10 µM: read-out: % Inhibition of mGluR5 Receptor (pig) [^3H]-MPEP Bond at 10 μM; for IC50: read-out: IC50 mGluR5 Receptor (pig) [^3H]-MPEP Bond
Procedure, shortened: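 Radioligand displacement of 5 nM [3H]-MPEP from pig brain homogenate (450 μg protein; medulla, cerebellum and pons removed) in 20 mM Hepes pH 8.0. Compounds were tested at 10 μM, incubated 60 min at room temperature, then filtered and counted by scintillation. Non-specific binding was defined with 10 μM MPEP.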

T1 sequence (I3LUI7 19-1212): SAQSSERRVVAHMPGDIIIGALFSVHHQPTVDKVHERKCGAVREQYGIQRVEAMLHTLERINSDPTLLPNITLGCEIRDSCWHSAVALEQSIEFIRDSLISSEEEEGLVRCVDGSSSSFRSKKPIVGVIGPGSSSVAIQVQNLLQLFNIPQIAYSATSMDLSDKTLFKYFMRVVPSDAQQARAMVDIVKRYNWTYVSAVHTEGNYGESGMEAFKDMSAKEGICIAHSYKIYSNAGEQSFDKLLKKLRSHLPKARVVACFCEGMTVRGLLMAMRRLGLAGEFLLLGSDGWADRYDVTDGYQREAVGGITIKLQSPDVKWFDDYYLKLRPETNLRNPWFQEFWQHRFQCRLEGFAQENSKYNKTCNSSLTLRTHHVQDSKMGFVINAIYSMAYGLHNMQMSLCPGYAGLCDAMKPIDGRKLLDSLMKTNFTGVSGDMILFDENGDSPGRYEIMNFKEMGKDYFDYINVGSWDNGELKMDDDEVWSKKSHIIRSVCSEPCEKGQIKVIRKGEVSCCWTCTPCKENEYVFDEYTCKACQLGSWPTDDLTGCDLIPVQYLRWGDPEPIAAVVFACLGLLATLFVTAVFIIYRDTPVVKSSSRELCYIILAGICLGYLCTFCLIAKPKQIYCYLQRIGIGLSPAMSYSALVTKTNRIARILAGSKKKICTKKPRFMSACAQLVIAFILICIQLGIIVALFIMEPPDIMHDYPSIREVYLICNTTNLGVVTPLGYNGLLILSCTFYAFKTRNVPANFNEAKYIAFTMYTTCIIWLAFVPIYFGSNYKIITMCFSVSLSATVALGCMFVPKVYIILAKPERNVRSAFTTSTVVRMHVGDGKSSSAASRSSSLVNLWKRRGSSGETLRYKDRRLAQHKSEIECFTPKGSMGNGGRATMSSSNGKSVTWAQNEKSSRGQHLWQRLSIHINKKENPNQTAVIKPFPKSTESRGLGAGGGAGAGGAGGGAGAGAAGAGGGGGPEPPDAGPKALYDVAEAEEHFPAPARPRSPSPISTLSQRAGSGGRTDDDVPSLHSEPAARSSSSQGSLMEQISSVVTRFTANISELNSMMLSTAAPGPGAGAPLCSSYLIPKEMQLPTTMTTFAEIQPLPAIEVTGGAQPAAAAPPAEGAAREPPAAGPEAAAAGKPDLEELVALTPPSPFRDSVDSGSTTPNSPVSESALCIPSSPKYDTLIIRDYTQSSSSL

Row | inhibition at 10 µM [%] | SMILES | other results
1 | 55 | Fc1c(CNC2CC2)cccc1-c1ccc2ncnc(NC3CC3)c2c1 [Example 324, N-cyclopropyl-6-(3-((cyclopropylamino)methyl)-2-fluorophenyl)quinazoline-4-amine] | –
2 | – | O=C1CCC(=O)N1Cc1cccc(-c2ccc3ncnc(NC4CCC4)c3c2)c1 [Example 872, 1-(3-(4-(cyclobutylamino)quinazolin-6-yl)benzyl)pyrrolidine-2,5-dione hydrochloride] | IC50: 0.05 µM
3 | – | Cc1cc2ncnc(NC3CC3)c2cc1-c1cccc(CN(C2CC2)S(=O)(=O)c2ccccc2)c1 [Example 721, N-cyclopropyl-N-(3-(4-(cyclopropylamino)-7-methylquinazolin-6-yl)benzyl)benzole sulfonamide] | % Inhibition of mGluR5 Receptor (pig) [^3H]-MPEP Bond at 10 μM: 87%
4 | 37 | O=C(c1ccccc1Br)N(Cc1cccc(-c2ccc3ncnc(N4CCCC4)c3c2)c1)C1CC1 [Example 122, 2-bromo-N-cyclopropyl-N-[3-(4-pyrrolidin-1-yl-quinazolin-6-yl)-benzyl]-benzamide] | –
5 | 66 | O=C(Cc1ccccc1)N(Cc1cc(-c2ccc3ncnc(NC4CC4)c3c2)ccc1Cl)C1CC1 [Example 748, N-(2-chloro-5-(4-(cyclopropylamino)quinazolin-6-yl)benzyl)-N-cyclopropyl-2-phenylacetamide] | –
6 | – | COc1ccc(-c2ccc3ncnc(NC4CC4)c3c2)cc1CN(C(C)=O)C1CC1 [Example 259, N-cyclopropyl-N-[5-(4-cyclopropylamino-quinazolin-6-yl)-2-methoxy-benzyl]-acetamide] | IC50: 0.29 µM
7 | 56 | COc1ccc(C(=O)N(Cc2cc(-c3ccc4ncnc(NC5CC5)c4c3)ccc2Cl)C2CC2)cc1OC [Example 784, N-(2-chloro-5-(4-(cyclopropylamino)quinazolin-6-yl)benzyl)-N-cyclopropyl-3,4-dimethoxybenzamide] | –
8 | 83 | CC(C)(C)Nc1ncnc2ccc(-c3ccc(F)c(CN(C(=O)c4ccc(F)cc4F)C4CC4)c3)cc12 [Example 855, N-(5-(4-(tert-butylamino)quinazolin-6-yl)-2-fluorobenzyl)-N-cyclopropyl-2,4-difluorobenzamide] | –
9 | 32 | O=C(c1ccccc1C(F)(F)F)N(Cc1cccc(-c2ccc3ncnc(N4CCCC4)c3c2)c1)C1CC1 [Example 135, N-cyclopropyl-N-[3-(4-pyrrolidin-1-yl-quinazolin-6-yl)-benzyl]-2-trifluoromethyl-benzamide] | –
10 | 36 | CCCN(Cc1cccc(-c2ccc3ncnc(Nc4ccccc4)c3c2)c1)C(=O)c1cc2ccccc2cn1 [Example 100, isoquinoline-3-carboxylic acid [3-(4-phenylamino-quinazolin-6-yl)-benzyl]-propyl-amide] | –
11 | – | CN(c1ncnc2ccc(-c3cccc(CN(C(=O)c4ccccn4)C4CC4)c3)cc12)C1CC1 [Example 272, N-cyclopropyl-N-(3-(4-(cyclopropyl(methyl)amino)quinazolin-6-yl)benzyl)picolinamide] | IC50: 15.3 µM
12 | – | CC(=O)N(Cc1cccc(-c2cc(F)c3ncnc(NC4CC4)c3c2)c1)C1CC1 [Example 716, N-cyclopropyl-N-(3-(4-(cyclopropylamino)-8-fluoroquinazolin-6-yl)benzyl)acetamide] | IC50: 0.12 µM
13 | 93 | Cc1nc(NC2CC2)c2cc(-c3ccc(F)c(CN(C(=O)c4ccccc4C(F)(F)F)C4CC4)c3)ccc2n1 [Example 470, N-cyclopropyl-N-(5-(4-(cyclopropylamino)-2-methylquinazolin-6-yl)-2-fluorobenzyl)-2-(trifluoromethyl)benzamide] | –
14 | – | COc1ccc(S(=O)(=O)N(Cc2cccc(-c3cc(F)c4ncnc(NC5CC5)c4c3)c2)C2CC2)cc1 [Example 694, N-cyclopropyl-N-(3-(4-(cyclopropylamino)-8-fluoroquinazolin-6-yl)benzyl)-4-methoxybenzole sulfonamide] | % Inhibition of mGluR5 Receptor (pig) [^3H]-MPEP Bond at 10 μM: 82%
15 | 36 | CC(C)CN(Cc1cccc(-c2ccc3ncnc(N4CCOCC4)c3c2)c1)C(=O)c1cnccn1 [Example 13, pyrazine-2-carboxylic acid isobutyl-[3-(4-morpholin-4-yl-quinazolin-6-yl)-benzyl]-amide] | –
16 | – | COc1ccc(CN(C(=O)c2ccccc2)C2CC2)cc1-c1ccc2ncnc(NC3CC3)c2c1 [Example 267, N-cyclopropyl-N-(3-(4-(cyclopropylamino)quinazolin-6-yl)-4-methoxybenzyl)benzamide hydrochloride] | IC50: 6.55 µM
17 | 37 | CC(C)Nc1ncnc2ccc(-c3cccc(CN(Cc4ccccc4)C(=O)c4cccs4)c3)cc12 [Example 154, thiophene-2-carboxylic acid benzyl-[3-(4-isopropylamino-quinazolin-6-yl)-benzyl]-amide] | –
18 | – | O=C(c1ccccn1)N(Cc1cccc(-c2cc(F)c3ncnc(NC4CC4)c3c2)c1)C1CC1 [Example 708, N-cyclopropyl-N-(3-(4-(cyclopropylamino)-8-fluoroquinazolin-6-yl)benzyl)picolinamide] | IC50: 0.13 µM
19 | 88 | Cc1cc2ncnc(NC3CC3)c2cc1-c1cccc(CN(C(=O)c2c(F)c(F)c(F)c(F)c2F)C2CC2)c1 [Example 768, N-cyclopropyl-N-(3-(4-(cyclopropylamino)-7-methylquinazolin-6-yl)benzyl)-2,3,4,5,6-pentafluorobenzamide] | –
20 | – | O=C(C=Cc1ccccc1)N(Cc1cccc(-c2ccc3ncnc(NC4CC4)c3c2)c1)C1CC1 [Example 255, N-cyclopropyl-N-[3-(4-cyclopropylamino-quinazolin-6-yl)-benzyl]-3-phenyl-acrylamide] | IC50: 1.85 µM
21 | 94 | O=C(c1cccnc1)N(Cc1cc(-c2ccc3ncnc(NC4CC4)c3c2)ccc1F)C1CC1 [Example 367, N-cyclopropyl-N-(5-(4-(cyclopropylamino)quinazolin-6-yl)-2-fluorobenzyl)nicotinamide] | –
22 | 79 | O=C(Cc1ccccc1)N(Cc1cccc(-c2cc(F)c3ncnc(NC4CC4)c3c2)c1)C1CC1 [Example 670, N-cyclopropyl-N-(3-(4-(cyclopropylamino)-8-fluoroquinazolin-6-yl)benzyl)-2-phenylacetamide] | –
23 | 76 | O=C(c1ccno1)N(Cc1cccc(-c2cc(F)c3ncnc(NC4CC4)c3c2)c1)C1CC1 [Example 775, N-cyclopropyl-N-(3-(4-(cyclopropylamino)-8-fluoroquinazolin-6-yl)benzyl)isoxazole-5-carboxamide] | –
24 | – | CS(=O)(=O)N(Cc1cccc(-c2ccc3ncnc(NC4CC4)c3c2)c1)C1CCCC1 [Example 210, N-cyclopentyl-N-(3-(4-(cyclopropylamino)quinazolin-6-yl)benzyl)methane sulfonamide] | IC50: 6.07 µM
25 | 95 | CC(=O)N(Cc1cccc(-c2ccc3ncnc(NCCc4ccccc4)c3c2)c1)C1CC1 [Example 393, N-cyclopropyl-N-(3-(4-(phenethylamino)quinazolin-6-yl)benzyl)acetamide] | –
26 | 94 | CN(c1ncnc2ccc(-c3ccc(F)c(CN(C(=O)c4ccco4)C4CC4)c3)cc12)C1CC1 [Example 420, N-cyclopropyl-N-(5-(4-(cyclopropyl(methyl)amino)quinazolin-6-yl)-2-fluorobenzyl)furan-2-carboxamide] | –
27 | 33 | CCCN(Cc1cccc(-c2ccc3ncnc(Nc4ccccc4)c3c2)c1)C(=O)CC#N [Example 112, 2-cyano-N-[3-(4-phenylamino-quinazolin-6-yl)-benzyl]-N-propyl-acetamide] | –
